For data set [1], the system named is β-glucosidase (originating from Aspergillus niger). Description: Inhibition of β-glucosidase activity by glucose in must and sweet wine. It counts as biochemical.
Data set [2] has as its system β-glucosidase. Description: Enzymatic hydrolysis of synthetic substrates by β-glucosidase (TLC, pNP liberated, GC). It counts as biochemical, sweet almond. The settings on record: media previously incubated with α-arabinosidase or α-rhamnosidase; 0.15 nkat, 40° C., 90 min. As to the method:
An ethyl acetate/isopropanol/water (65:30:10 v/v/v) mixture was used as a migration solvent. The sugars and the glycosides are visualized by means of the following mixture, prepared immediately before use: 0.2% naphthoresorcinol in ethanol/concentrated sulphuric acid (19:1 v/v). The application of this visualizing agent is followed by drying the plates in the oven (105° C.) for 15 minutes. Apart from their migration distance, the various compounds are also distinguished by their colour. The glycosides are purple-red, the arabinosides are bluish, the apiosides are green, rhamnose greenish pink, arabinose blue, apiose green and glucose pink. […] The hydrolysis and analysis protocols are given in plan form (Table 2). […]

The test system of data set [3] is α-arabinosidase. Description: Enzymatic hydrolysis of the muscat glycosidic extract by α-arabinosidase (GC). The settings on record: for Terpene monoglucosides liberated by α-arabinosidase from a glycosidic extract / GC peak of the glycosidic extract after incubation with α-arabinosidase: 0.15 nkat, 40° C., 16 h; for % of monoglucosides (liberated by the two enzymes together): sum of α-arabinosidase and α-rhamnosidase; for Compounds appearing after action of α-arabinosidase: HPLC-collected peak, appears together with arabinose. It counts as biochemical. As to the method: (§1) 40 μl of glycosidic extract and 60 μl of a solution of Glc-pNP (internal standard) at a concentration of 50 mg/1 in ethyl acetate are introduced into a suitable flask. The mixture is taken to dryness at 40° C. with a stream of nitrogen. 40 μl of the silylating reagent (Tri-sil, Pierce, Rockford, Ill., U.S.A.) are then introduced; the flask is sealed and maintained at 40° C. for 20 minutes. After rapid cooling, the silylated sample is then ready for analysis by GC.
(§2) The apparatus used consists of a Series 30C gas chromatograph, an "on-column" injector (injected volume 0.5 μl) and a flame ionization detector (Girdel, France). A thin film (0.20 μm) of an OV-1 (Girdel) apolar silicone phase is grafted onto the inner wall of the capillary column ([…].). The oven temperature is programmed from 125 to 305° C. at the rate of 5° C./minute, then maintained at 305° C. for 15 minutes. Finally, the detector temperature is set at 300° C. and hydrogen is used as the carrier gas at a pressure of 120 kPa.
(§3) The experimental protocols for the enzymatic hydrolysis on the glycosidic extract are collated in Table 3. […]

Data set [4] relates to α-rhamnosidase. Description: Enzymatic hydrolysis of the muscat glycosidic extract by α-rhamnosidase (GC). It is filed as biochemical. The settings on record: 0.15 nkat, 40° C., 16 h. Here is the method: as §1, §2, §3
Data set [5] deals with β-glucosidase. Kind of data set: Second stage: consecutive action of β-glucosidase on the pre-incubated glycosidic extract (GC). The settings on record: 0.15 nkat, 40°, 16 h. It is filed as biochemical, sweet almond. As to the method: as §1, §2, §3
For data set [6], the target named is T1, β-glucosidase (originating from the yeast Candida wickerhamii CBS 2928) (Nakazawaea wickerhamii, UniProt Q12601).
T1 sequence (Q12601 20-609): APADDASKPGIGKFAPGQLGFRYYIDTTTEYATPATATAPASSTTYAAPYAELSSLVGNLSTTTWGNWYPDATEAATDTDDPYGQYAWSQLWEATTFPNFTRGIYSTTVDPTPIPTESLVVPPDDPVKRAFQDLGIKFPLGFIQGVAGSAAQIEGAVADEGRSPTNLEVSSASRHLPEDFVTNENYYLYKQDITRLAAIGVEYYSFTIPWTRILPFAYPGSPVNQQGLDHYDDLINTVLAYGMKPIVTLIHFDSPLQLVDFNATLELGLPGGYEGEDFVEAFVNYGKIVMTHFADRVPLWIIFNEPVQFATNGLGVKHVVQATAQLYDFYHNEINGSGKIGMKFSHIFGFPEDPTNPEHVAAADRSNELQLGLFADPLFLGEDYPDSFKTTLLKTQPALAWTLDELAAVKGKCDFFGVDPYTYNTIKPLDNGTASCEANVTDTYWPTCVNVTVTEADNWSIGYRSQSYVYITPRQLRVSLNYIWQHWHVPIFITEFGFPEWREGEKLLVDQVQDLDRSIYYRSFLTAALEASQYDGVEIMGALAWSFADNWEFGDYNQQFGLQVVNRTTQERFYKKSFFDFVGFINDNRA
Kind of data set: Hydrolysis of monoglucosides in naturally sweet wines by Candida wickerhamii β-glucosidase. It counts as biochemical.

In the next data set the test system is β-apiosidase. Kind of data set: Enzymatic hydrolysis of Api-Glc-Ger by β-apiosidase present in Klerzyme 200 (TLC). It is filed as biochemical. As to the method:
The β-apiosidase present in a commercial enzyme preparation (Klerzyme 200, Gist-brocades, France) was used without further purification.
(§4) Thin-layer adsorption chromatography was carried out on pieces of aluminium foil covered with a thin layer (0.2 mm) of silica gel (5553 Silica gel 60 without a fluorescence indicator, Merck). An ethyl acetate/isopropanol/water (65:30:10 v/v/v) mixture was used as a migration solvent.
(§5) The sugars and the glycosides are visualized by means of the following mixture, prepared immediately before use: 0.2% naphthoresorcinol in ethanol/concentrated sulphuric acid (19:1 v/v). The application of this visualizing agent is followed by drying the plates in the oven (105° C.) for 15 minutes. Apart from their migration distance, the various compounds are also distinguished by their colour. The glycosides are purple-red, the arabinosides are bluish, the apiosides are green, rhamnose greenish pink, arabinose blue, apiose green and glucose pink.
(§6) In all the tests relating to the enzymatic hydrolysis of the synthetic substrates, the same glycosidase activity (0.15 nkat) is used for each of the enzymes (α-arabinosidase, apiosidase, α-rhamnosidase, β-glucosidase).

Data set [7] relates to α-arabinosidase. Description: Enzymatic hydrolysis of synthetic substrates by α-arabinosidase (TLC). It counts as biochemical. The settings on record: 0.15 nkat, 40° C., 90 min, pH 4.2. Here is the method:
as §4, §5, §6
(§7) The hydrolysis and analysis protocols are given in plan form (Table 2). […]

For data set [8], the system named is α-rhamnosidase. Description: Enzymatic hydrolysis of synthetic substrates by α-rhamnosidase (TLC). It is filed as biochemical. The settings on record: 0.15 nkat, 40° C., 90 min, pH 4.2. Here is the method: as §4, §5, §6, §7
The nature of data set [9]: Enzymatic hydrolysis of a glycosidic extract in natural media (must, dry wine) by Hemicellulase REG2 + Naringinase. The settings on record: 25° C., 86 hours. It is filed as biochemical. As to the method:
The enzymatic hydrolysis of a glycosidic extract incorporated, on the one hand into a natural medium (must or dry wine), and on the other hand into a reference medium (buffer), by the action of commercial preparations containing the requisite three glycosidases, was studied.
A juice and a wine of a vine variety not containing terpenols and terpene glycosides, but enriched beforehand with a known amount of glycosidic extract of muscat, are treated with commercial enzyme preparations. The media, as well as controls, are incubated at 25° C. for 86 hours (see the experimental protocol plan below). They are then passed through a column of Amberlite XAD-2 according to the protocol applied for the production of the glycosidic extract, and the terpenols are assayed by GC.

The subject of data set [10] is α-arabinosidase and then β-glucosidase. Kind of data set: Sequential hydrolysis by α-arabinosidase and then β-glucosidase (GC of sugars, glucosides, terpenols). It counts as biochemical. The settings on record: HPLC-collected peak; appears together with glucose. Here is the method: The monoterpene alcohols studied here are sufficiently volatile to be chromatographed as they are. To the pentane extract containing them, the internal standard, 4-nonanol (for synthesis, Merck, Darmstadt, FRG) is added in the proportion of 1 μl of a solution at a concentration of 2.89 mg/ml in pentane per 50 μl of medium. The mixture is then dried over sodium sulphate, filtered through glass wool and then concentrated to a volume in the region of 100 μl For this purpose, the pentane is first removed using a conventional still, and then a Dufton type column of a size suited to the volume remaining to be concentrated.
The constituents of the concentrated extract are separated using a capillary column (25 m×0.32 mm I.D.) containing a CP wax 52 CB (Chrompack, Middelburg, Netherlands) polar phase. The grafted polyethylene glycol film was selected thick (1.28 μm) in order to permit the injection of large sample volumes, up to 4 μl. […]
Furthermore, each fraction was subjected to the sequential action of α-arabinosidase and then β-glucosidase. At the end of each stage and according to the procedures described, the incubated medium was analysed by GC in order to test for sugars and glucosides on the one hand, and for terpenols on the other hand. […]

In the case of `OC[C@H]1OC(O)[C@H](O)[C@@H](O)[C@@H]1O` (stereo partly shown) [glucose], the “effect on β-glucosidase activity” value in [1] (glucose 30 g/l in naturally sweet wines) is “inhibiting β-glucosidase”; in [1] (glucose present in large amounts in the must), “inhibition of the β-glucosidase activity”.

In the case of `CC(C)=CCC/C(C)=C/CO[C@@H]1O[C@H](CO)[C@@H](O)[C@H](O)[C@H]1O` [Glc-Ger, geranyl β-D-glucopyranoside], the “consecutive action of β-glucosidase (second stage, TLC)” value in the data set with β-glucosidase [2] is “disappearance of Glc-Ger and Glc-pNP and the appearance of glucose”. In addition, in the data set with α-arabinosidase [3], the “Terpene monoglucosides liberated by α-arabinosidase from a glycosidic extract” value turned out to be 39%. Moreover, the “% of monoglucosides (liberated by the two enzymes together)” value in the data set with α-arabinosidase [3] is 48%. Moreover, the “Terpene monoglucosides liberated by α-rhamnosidase from a glycosidic extract” value in the data set on α-rhamnosidase [4] is 9%. In addition, the “hydrolysis by consecutive action of β-glucosidase (second stage, GC)” value with β-glucosidase [5] is “disappearance”. Further, the “hydrolyzed by Candida wickerhamii β-glucosidase” value (“hydrolyzed” for short) in [6] (pH 3.6) was 45%; in data set [6] (pH 4.0), “two thirds”.

As to `CC(C)=CCC/C(C)=C/CO[C@@H]1O[C@H](CO[C@@H]2OC[C@](O)(CO)[C@H]2O)[C@@H](O)[C@H](O)[C@H]1O` [Api-Glc-Ger, geranyl β-D-apiofuranosyl-(1→6)-β-D-glucopyranoside], the “hydrolysis by β-apiosidase present in Klerzyme 200 (TLC)” value with β-apiosidase was “disappearance of the substrate and the appearance of apiose and glucose”.

As for `O=[N+]([O-])c1ccc(O[C@@H]2O[C@H](CO[C@@H]3O[C@@H](CO)[C@H](O)[C@H]3O)[C@@H](O)[C@H](O)[C@H]2O)cc1` [Ara-Glc-pNP, p-Nitrophenyl 6-O-(α-L-arabinofuranosyl)-β-D-glucopyranoside], the “hydrolysis by α-arabinosidase (TLC)” value with α-arabinosidase [7] is “disappearance of this substrate and the appearance of arabinose and Glc-pNP”.

With `C[C@@H]1O[C@@H](OC[C@H]2O[C@@H](Oc3ccc([N+](=O)[O-])cc3)[C@H](O)[C@@H](O)[C@@H]2O)[C@H](O)[C@H](O)[C@H]1O` [Rha-Glc-pNP], in the data set with α-rhamnosidase [8], the “hydrolysis by α-rhamnosidase (TLC)” value is “disappearance of these substrates”.

`CC(C)=CCC/C(C)=C/CO[C@@H]1O[C@H](CO[C@@H]2O[C@@H](C)[C@H](O)[C@@H](O)[C@H]2O)[C@@H](O)[C@H](O)[C@H]1O` [Rha-Glc-Ger, Geranyl 6-O-(α-L-rhamnopyranosyl)-β-D-glucopyranoside]: the “hydrolysis by α-rhamnosidase (TLC)” value in the data set with α-rhamnosidase [8] is reported as “disappearance of these substrates”. Further, the “GC peak of the glycosidic extract after the action of α-rhamnosidase” value with α-rhamnosidase [4] is given as “decreases”.

Regarding `CC(C)=CCC/C(C)=C\CO[C@@H]1O[C@H](CO)[C@@H](O)[C@H](O)[C@H]1O` [Glc-Ner, neryl β-D-glucopyranoside], in the data set on α-arabinosidase [3], the “Terpene monoglucosides liberated by α-arabinosidase from a glycosidic extract” value is listed as 28% and the “% of monoglucosides (liberated by the two enzymes together)” value worked out at 33%. Also, the “Terpene monoglucosides liberated by α-rhamnosidase from a glycosidic extract” value with α-rhamnosidase [4] was 5%. The “hydrolysis by consecutive action of β-glucosidase (second stage, GC)” value in the data set with β-glucosidase [5] is “disappearance”. In addition, in [6] (pH 3.6), the “hydrolyzed” value is given as 19%. In [6] (pH 4.0), the “hydrolyzed” value was “two thirds”.

Turning to `OCc1ccccc1` [Benzyl alcohol], the “Compounds liberated relative to the reference medium” value in [9] (MUST (pH 3.4, sugars 180 g/l)) is recorded as 46%; in data set [9] (WINE (dry white, pH 3.1)), 50%.

Regarding `C=CC(C)(O)CCC=C(C)C` (stereo not shown) [Linalol], the “Compounds liberated relative to the reference medium” value in [9] (MUST (pH 3.4, sugars 180 g/l)) is listed as 9%; in [9] (WINE (dry white, pH 3.1)) it was 14%.

On to `CC(C)=CCC/C(C)=C\CO[C@@H]1O[C@H](CO[C@@H]2O[C@@H](CO)[C@H](O)[C@H]2O)[C@@H](O)[C@H](O)[C@H]1O` [Ara-Glc-Ner, neryl a-L-arabinofuranosyl-(1→6)-β-D-glucopyranoside], for which, in the data set on α-arabinosidase [3], the “GC peak of the glycosidic extract after incubation with α-arabinosidase” value is given as “disappear completely” and the “Compounds appearing after action of α-arabinosidase” value is “Glc--Ner”. The “Compounds appearing after action of α-arabinosidase and then β-glucosidase” value in [10] is listed as “nerol”.

Take `O=[N+]([O-])c1ccc(O[C@@H]2O[C@H](CO)[C@@H](O)[C@H](O)[C@H]2O)cc1` [Glc-pNP, p-nitrophenyl β-D-glucopyranoside, reference compound]: in the data set with β-glucosidase [2], the “consecutive action of β-glucosidase (second stage, TLC)” value was “disappearance of Glc-Ger and Glc-pNP and the appearance of glucose”.

As for `CC(C)=CCC/C(C)=C/CO[C@@H]1O[C@H](CO[C@@H]2O[C@@H](CO)[C@H](O)[C@H]2O)[C@@H](O)[C@H](O)[C@H]1O` (single isomer, unassigned) [Ara-Glc-Ger, Geranyl 6-O-(α-L-arabinofuranosyl)-β-D-glucopyranoside], in the data set on α-arabinosidase [3], the “GC peak of the glycosidic extract after incubation with α-arabinosidase” value is “disappear completely” and the “Compounds appearing after action of α-arabinosidase” value was “Glc--Ger”. The “Compounds appearing after action of α-arabinosidase and then β-glucosidase” value in data set [10] is given as “geraniol”.
